Data set [1] can be described thus: Cytokine and chemokine levels in plasma of treated animals, Luminex. The data set is classed as in vivo, CT-26-bearing BALB/c mice. The following applies: 24 h after second dose. How it is done:
Next, the ProcartaPlex (96-well) multiplex assay panel was performed according to the manufacturer's recommendations. In brief, the capture bead mix was incubated with test samples (undiluted SN or mouse plasma) or standard mix overnight. The SN of three independent experiments or the plasma of four animals per treatment group was loaded onto the multiplex assay plate. Next, biotinylated detection antibody mix and Streptavidin-PE were added to the plate. Following the recommended washing steps, the samples were incubated in a reading buffer and were measured using a Luminex xMAP platform (Bio-Plex MAGPIX Multiplex Reader; Bio-Rad Laboratories) and analyzed using xPONENT software.
(§1) Tumor size was determined daily via manual caliper measurement. […] Animals were euthanized via cervical dislocation.

Another data set deals with T1, albumin (Bos taurus, UniProt P02769).
T1 construct: Serum proteins have a retention span of ∼2–4 min as part of the high-molecular weight fraction with albumin at ∼4 min; tissue Sigma-Aldrich; host or cells: fetal calf serum (whole serum, buffered with 150 mM phosphate buffer pH 7.4)
In words: Albumin binding in fetal calf serum, SEC-ICP-MS. The data set is classed as in vitro ADME. Particulars: 50 μM in FCS. How it is done: FCS was purchased from Sigma-Aldrich and buffered with 150 mM PB pH 7.4 to guarantee a stable pH. The platinum(IV) complexes were dissolved in 150 mM PB (pH 7.4) at a concentration of 5 mM and diluted 1 : 100 in the buffered serum to obtain a final concentration of 50 μM. The samples were then incubated in an autosampler at 37 °C and analyzed for 24 h. Between each sample, a pure water blank was measured. For SEC-ICP-MS measurements an Agilent 1260 Infinity system coupled to an Agilent 7800 ICP-MS equipped with a dynamic reaction cell was used. Oxygen (purity 5.5, Messer Austria GmbH, Gumpoldskirchen, Austria) was used as a reaction gas.

Data set [2] deals with immune cell populations in tumor and spleen. In words: Immune activation and infiltration by flow cytometry. It is filed as in vivo, CT-26-bearing BALB/c mice. Particulars: 24 h after second dose. The protocol: as §1
The generation and treatment of tumor-bearing mice are outlined in the section “In vivo syngraft experiments” above. Samples were kept on ice during the whole procedure. Tissues were prepared as described previously.[55] In brief, tumor and spleen tissues were collected and mechanically dissociated in DPBS buffer containing Ca^2+/Mg^2+ and FCS (5%). Tumor samples were digested using collagenase VIII (1 mg mL^−1) in a DPBS buffer (without Ca^2+/Mg^2+) supplemented with DNAse I (1 mg mL^−1) for 15 min at 37 °C under constant shaking. Samples were filtered using 70 μm cell strainers in a DPBS buffer (without Ca^2+/Mg^2+) containing FCS (5%), EDTA (5 mM) and DNase I (20 μg mL^−1). Subsequent washing steps were performed in DPBS buffer (without Ca^2+/Mg^2+) containing FCS (5%), EDTA (5 mM) and DNase I (20 μg mL^−1), unless indicated otherwise. Red blood cells were removed by short incubation with ACK buffer. For blocking, samples were incubated with the Ultra-LEAF purified anti-mouse CD16/CD32 antibody (clone: 93; #101330; RRID:AB_2783037; dilution: 1 : 1000) (Biolegend, San Diego, CA, USA) in the BD Horizon Brilliant Stain Buffer (#563794; BD Biosciences) for 10 min. Next, the samples were incubated with an antibody mixture in the BD Horizon Brilliant Stain Buffer for 30 min. Fluorescent dye-labeled antibodies targeting murine CD3 (17A2; #100203; RRID:AB_312661; 1 : 50), CD8a (53-6.7; #100738; RRID:AB_11204079; 1 : 160), CD19 (6D5; #115528; RRID:AB_493735; 1 : 400), CD49b (DX5; #108924; RRID:AB_2565271; 1 : 229), CD11b (M1/70; #101228; RRID:AB_893232; 1 : 80), and CD69 (H1.2F3; # 104512; RRID:AB_493564; 1 : 40) were purchased from BioLegend. The antibody targeting murine CD4 (RM4-5; # 85-0042-U100; 1 : 80) and the viability dye Ghost Dye Red 780 (#13-0865-T100; 1 : 1000) were purchased from Tonbobio (San Diego, CA, USA). The antibody targeting CD45 (30-F11; #363-0451-82; RRID:AB_2925264; 1 : 80) was purchased from Life Tech (Invitrogen). For intracellular staining of granzyme B (GzmB) (QA16A02; #372208; RRID:AB_2687032; 1 : 20) and FoxP3 (MF-14; #320014; RRID:AB_439750; 1 : 100) the True-Nuclear Transcription Factor Buffer Set (Biolegend; #424401) was used according to the manufacturer's recommendations. In brief, samples were incubated with Perm Fix Solution for 60 min at RT. Next, the samples were stained with antibodies targeting GzmB and FoxP3 (diluted in Perm buffer) for 30 min at RT. […] Next day, the samples were analyzed using a Cytek Aurora 5L (Cytek Biosciences, CA, USA) spectral flow cytometer. Data were analyzed using SpectroFlo (v3.2.1) (Cytek Biosciences) and FlowJo (v10.8.1) (FlowJo LLC, Ashland, OR, USA) software.
On the technique in general: Flow cytometry measures light scatter and fluorescence of single cells or particles in a stream.

The nature of data set [3]: Hematological analysis after long-term treatment. The following applies: 72 h after the fourth dose. The protocol: (§2) Mice were kept in groups of four per cage with sterilized paper-based environmental enrichment and food and water ad libitum, under pathogen-free conditions and a controlled environment with a 12 h light–dark cycle. Syngeneic models of colorectal carcinoma were generated via subcutaneous injection of CT-26 cells (0.5 × 10^6 cells in 50 μL of serum-free RPMI-1640 medium) into the right flank of 8–12 weeks old BALB/c mice. […] All animals were euthanized 24 h after the second dose. […] To determine the anticancer efficacy of the investigated compounds, treatment started 4 d after tumor implantation, when all tumors were measurable (>25 mm^3) using a twice-weekly treatment scheme for two weeks. Tumor size was determined daily via manual caliper measurement. The tumor volume was calculated as tumor volume = (length × diameter × diameter)/2. The overall condition, shape, and activity of the animals were assessed daily. Peripheral blood was collected from the submandibular vein in K3E K3EDTA tubes (Greiner Bio-One; Kremsmünster, AUT) on ice and was analyzed for hematological parameters (red blood cells (RBCs), hemoglobin (HGB), hematocrit (HCT), red cell distribution width (RDW), mean corpuscular volume (MCV), white blood cells (WBCs), lymphocytes (LYM), monocytes (MO), granulocytes (GRA), and platelets (PLT) using a Vet ABC hematology analyzer (scil Animal Care GmbH, Viernheim, Germany). EDTA-blood was centrifuged (900g, 10 min) twice and the supernatant (EDTA-plasma) was stored at −20 °C for subsequent cytokine/chemokine analysis using a Luminex detection platform. All animal experiments were performed with humane endpoints based on Federation of European Laboratory Animal Science Associations guidelines and according to the regulations of the Ethics Committee for the Care and Use of Laboratory Animals at the Medical University Vienna (proposal number BMBWF 2023–0.122.324). Animals were euthanized upon reaching a tumor volume of >1500 mm^3, a loss in body weight (>20%), tumor ulceration or other indications of deteriorated health. Animals were euthanized via cervical dislocation.

Data set [4] in a line: Hematological analysis 24 h after the second dose. Particulars: two i.v. doses equimolar to 9 mg kg^−1 oxaliplatin, 24 h after second dose. The protocol: as §2
The test system of a further data set is CT-26 tumors. In words: Anticancer efficacy in vivo, syngeneic colorectal carcinoma. Details: species or system BALB/c mice. The following applies: i.v. twice a week for two weeks, equimolar to 9 mg kg^−1 oxaliplatin. How it is done:
as §1

Data set [5] is described as follows: Platinum distribution study in vivo by ICP-MS. The following applies: i.v., 24 h after second dose. On the set-up: species or system CT-26 tumor-bearing BALB/c mice. The protocol:
as §1
The generation and treatment of tumor-bearing mice are outlined in the section “In vivo syngraft experiments” described above. Mouse tissues were processed as described previously.[13] Briefly, serum was isolated from peripheral blood by centrifugation (900g, 10 min, 4 °C, twice). Tissues were digested in 20% nitric acid and hydrogen peroxide using an open-vessel graphite digestion system. The platinum concentration was determined by ICP-MS analysis; for details see “Intracellular platinum accumulation in vitro by ICP-MS”.

Setting [6] is: two doses, vs Ox-MSA-PEG-Ca or oxaliplatin.

“Also recorded” adds a separate entry of the source.

T1 sequence (P02769 25-607): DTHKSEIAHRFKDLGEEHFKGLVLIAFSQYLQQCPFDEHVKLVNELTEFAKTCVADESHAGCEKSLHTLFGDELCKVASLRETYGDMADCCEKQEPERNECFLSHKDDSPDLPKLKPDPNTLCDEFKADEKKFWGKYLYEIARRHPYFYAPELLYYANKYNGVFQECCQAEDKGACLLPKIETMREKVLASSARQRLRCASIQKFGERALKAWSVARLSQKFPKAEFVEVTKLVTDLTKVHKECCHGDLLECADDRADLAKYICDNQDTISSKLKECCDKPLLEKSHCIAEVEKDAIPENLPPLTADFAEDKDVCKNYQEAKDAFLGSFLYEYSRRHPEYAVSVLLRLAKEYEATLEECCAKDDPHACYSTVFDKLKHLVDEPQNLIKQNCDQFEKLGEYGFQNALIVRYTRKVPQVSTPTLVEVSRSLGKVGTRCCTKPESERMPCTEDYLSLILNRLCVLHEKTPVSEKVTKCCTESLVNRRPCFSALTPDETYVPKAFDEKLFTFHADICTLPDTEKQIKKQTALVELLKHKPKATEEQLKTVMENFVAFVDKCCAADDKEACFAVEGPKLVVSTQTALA

As to `COc1cc2cc(C(=O)CCC(=O)[O][Pt-2]34([O]C(=O)NCCOCCOCCOCCOCCN5C(=O)C=CC5=O)([NH2+][C@@H]5CCCC[C@H]5[NH2+]3)[O]C(=O)C(=O)[O]4)sc2cc1OC` [Ox-MSA-Mal, (OC-6-34)-[(1R,2R)-1,2-cyclohexanediamino]-oxalato-[4-(5,6-dimethoxybenzo[b]thiophen-2-yl)-4-oxobutylcarboxylato]-[(14-(2,5-dioxo-2,5-dihydro-1H-pyrrol-1-yl)-3,6,9,12-tetraoxatetradecyl)carbamato]platinum(IV)], in data set [1], the “plasma chemokines CXCL9 and CXCL11” value is “most strongly activated”. Besides, the “platinum bound to albumin” value at albumin (150 mM PB pH 7.4, 37 °C, 0 h time point) is “approximately 99%”. Moreover, the “stability of albumin drug conjugate” value on albumin (37 °C, no release of platinum from the protein) was “stable over 24 h”. For the same compound, in data set [2], the “FoxP3+ CD4+ T cell compartment in the spleen” value is “selectively elevated”. Also, in data set [3], the RBC toxicity result is “strongly reduced” and the “platelet counts (PLT) / thrombocytopenia” value is “not evident”. Also, the “absolute counts of white blood cells and subpopulations” value in data set [3] (i.v. twice a week for two weeks) is recorded as “induced an increase”. Moreover, the anemia result in data set [4] is “not”. In the data set on CT-26 tumors, the tumor growth result is recorded as “distinctly stronger anticancer efficacy; also recorded: significantly inhibited colorectal tumor growth”. For the same compound, the “liver platinum level relative to tumor” value in data set [5] (two doses equimolar to 9 mg kg^−1 oxaliplatin) is 1.4 fold. Also, in data set [5] (setting [6]), the “platinum accumulation in peripheral blood cells” value is recorded as “clearly lowered accumulation”; the “platinum levels in serum and tumor” value is “distinctly elevated platinum levels”.

The values above are taken from publication PMC11969438 (Inorganic Chemistry Frontiers, 2025).
